Test results taken from ChEMBL document CHEMBL1201862, “PubChem BioAssay data set” (2004).
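Cells were grown in 96-well plates and exposed to each compound for 48 hours at five concentrations; endpoints were interpolated linearly between bracketing concentrations, or set to the highest concentration if not reached. Abbreviation: GI50, concentration required for 50% inhibition of growth.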 Activity calls are given as the source filed them. No stated cut-off is given here; in the data, active = GI50 up to about 1.1 µM and inactive = higher.

How the values were obtained:
Assay in all cases: NCI-60 cell line screen, 48 h
786-0 = tested on: 786-0
ACHN = tested on: ACHN
CAKI-1 = tested on: CAKI-1
HCT-116 = tested on: HCT-116
HOP-62 = tested on: HOP-62
HT-29 = tested on: HT-29
Hs-578T = tested on: Hs-578T
KM12 = tested on: KM12
LOX IMVI = tested on: LOX IMVI
Malme-3M = tested on: Malme-3M
NCI-H23 = tested on: NCI-H23
NCI-H460 = tested on: NCI-H460
OVCAR-3 = tested on: OVCAR-3
RPMI-8226 = tested on: RPMI-8226
RXF 393 = tested on: RXF 393
SF-295 = tested on: SF-295
SK-MEL-28 = tested on: SK-MEL-28
UACC-257 = tested on: UACC-257
UACC-62 = tested on: UACC-62
SNB-75 = tested on: SNB-75

Measured: GI50

O=C(O)C1Cc2c([nH]c3ccccc23)C(CCCCO)N1 (stereo not drawn)
inactive: 786-0 > 100 µM | ACHN > 100 µM | CAKI-1 > 100 µM | HCT-116 > 100 µM | HOP-62 > 100 µM | HT-29 > 100 µM | Hs-578T > 100 µM | KM12 > 100 µM | LOX IMVI > 100 µM | Malme-3M > 100 µM | NCI-H23 > 100 µM | NCI-H460 > 100 µM | OVCAR-3 > 100 µM | RPMI-8226 > 100 µM | RXF 393 > 100 µM | SF-295 > 100 µM | SK-MEL-28 > 100 µM | UACC-257 > 100 µM | UACC-62 > 100 µM

Oc1cccc(-c2cn3cc(C(F)(F)F)ccc3n2)c1
inactive: 786-0 54.6 µM | ACHN 39.9 µM | CAKI-1 47.9 µM | HCT-116 39.9 µM | HOP-62 48.8 µM | HT-29 24.1 µM | Hs-578T 74.6 µM | KM12 28.6 µM | LOX IMVI 32.6 µM | Malme-3M 27.9 µM | NCI-H23 42.7 µM | NCI-H460 26.1 µM | OVCAR-3 19.5 µM | RXF 393 13.8 µM | SF-295 24.5 µM | SK-MEL-28 61.9 µM | UACC-257 22.9 µM | UACC-62 30.7 µM

COc1ccccc1CNC(=O)[C@H](Cc1ccc(O)cn1)NC(C)=O
inactive: 786-0 > 100 µM | ACHN > 100 µM | CAKI-1 > 100 µM | HCT-116 > 100 µM | HOP-62 > 100 µM | HT-29 > 100 µM | Hs-578T > 100 µM | KM12 > 100 µM | LOX IMVI > 100 µM | Malme-3M > 100 µM | NCI-H23 > 100 µM | NCI-H460 > 100 µM | OVCAR-3 > 100 µM | RPMI-8226 > 100 µM | RXF 393 > 100 µM | SF-295 > 100 µM | SK-MEL-28 > 100 µM | UACC-257 > 100 µM | UACC-62 > 100 µM

N#CC(c1ccccc1)N(CCOCCOCCN(C(=O)c1cccc2ccccc12)C(C#N)c1ccccc1)C(=O)c1cccc2ccccc12 (stereo not drawn)
inactive: 786-0 > 100 µM | ACHN > 100 µM | CAKI-1 > 100 µM | HCT-116 9.55 µM | HT-29 > 100 µM | Hs-578T > 100 µM | KM12 > 100 µM | LOX IMVI > 100 µM | Malme-3M > 100 µM | NCI-H23 > 100 µM | NCI-H460 87.1 µM | OVCAR-3 > 100 µM | RXF 393 > 100 µM | SF-295 > 100 µM | SK-MEL-28 > 100 µM | SNB-75 > 100 µM | UACC-257 > 100 µM | UACC-62 > 100 µM

O=[N+]([O-])C(/C(Cl)=C(/Cl)N1CCCCC1)=C1\NCCO1
inactive: 786-0 > 100 µM | ACHN > 100 µM | CAKI-1 > 100 µM | HCT-116 > 100 µM | HOP-62 > 100 µM | HT-29 > 100 µM | Hs-578T > 100 µM | KM12 > 100 µM | Malme-3M > 100 µM | NCI-H23 > 100 µM | NCI-H460 > 100 µM | OVCAR-3 > 100 µM | RPMI-8226 > 100 µM | SF-295 > 100 µM | SK-MEL-28 > 100 µM | SNB-75 > 100 µM | UACC-257 > 100 µM | UACC-62 > 100 µM

Cc1ccc2nc(-c3nccn3C)cc(C(=O)NC(C)CN(C)C)c2c1 (stereo not drawn)
inactive: 786-0 > 100 µM | ACHN 60 µM | CAKI-1 > 100 µM | HCT-116 > 100 µM | HOP-62 34.9 µM | HT-29 72.6 µM | Hs-578T > 100 µM | KM12 > 100 µM | LOX IMVI 91.2 µM | Malme-3M > 100 µM | NCI-H23 > 100 µM | NCI-H460 24.9 µM | RXF 393 > 100 µM | SK-MEL-28 > 100 µM | SNB-75 > 100 µM | UACC-257 > 100 µM | UACC-62 > 100 µM

CC1C(c2ccccc2)NC(c2ccccc2)CC1(N)C#N (stereo not drawn)
inactive: 786-0 > 100 µM | ACHN > 100 µM | CAKI-1 > 100 µM | HCT-116 > 100 µM | HOP-62 > 100 µM | HT-29 63.1 µM | Hs-578T > 100 µM | KM12 > 100 µM | LOX IMVI > 100 µM | NCI-H23 > 100 µM | NCI-H460 > 100 µM | OVCAR-3 > 100 µM | RXF 393 > 100 µM | SF-295 > 100 µM | SK-MEL-28 > 100 µM | SNB-75 > 100 µM | UACC-257 48 µM | UACC-62 90.6 µM

C[C@H]1CC[C@H]([C@@H](C)[C@H]2[C@@H](O)C[C@H]3[C@@H]4CC[C@H]5C[C@@H](O)CC[C@]5(C)[C@H]4CC[C@]23C)NC1
inactive: 786-0 18.9 µM | ACHN 21.2 µM | CAKI-1 16.1 µM | HCT-116 15.6 µM | HOP-62 23.7 µM | HT-29 18.1 µM | Hs-578T 27.1 µM | KM12 15.2 µM | LOX IMVI 19.2 µM | Malme-3M 15.7 µM | NCI-H23 15.5 µM | NCI-H460 20.2 µM | OVCAR-3 18.7 µM | RPMI-8226 7.31 µM | RXF 393 20.6 µM | SF-295 16.9 µM | SK-MEL-28 18.7 µM | UACC-257 18.4 µM | UACC-62 14.6 µM

N#C[C@H]1C(=O)C(c2nc3ccccc3[nH]2)S[C@H]1c1ccccc1 (stereo partly drawn)
inactive: 786-0 19.1 µM | ACHN 20 µM | CAKI-1 38.6 µM | HCT-116 27.4 µM | HT-29 32.2 µM | Hs-578T 45.2 µM | KM12 44.2 µM | LOX IMVI 42 µM | Malme-3M 29.9 µM | NCI-H23 27.5 µM | NCI-H460 35.1 µM | OVCAR-3 31 µM | RPMI-8226 25.5 µM | RXF 393 19.1 µM | SF-295 25.2 µM | SK-MEL-28 54.8 µM | UACC-257 63.2 µM | UACC-62 15.3 µM

O=c1oc2c/c(=C\c3ccccn3)c(=O)c3cccc1c3-2
inactive: 786-0 14.6 µM | ACHN 44.7 µM | CAKI-1 > 100 µM | HCT-116 35.2 µM | HOP-62 15.4 µM | HT-29 > 100 µM | Hs-578T > 100 µM | KM12 50.4 µM | LOX IMVI 29 µM | Malme-3M 72.3 µM | NCI-H23 > 100 µM | NCI-H460 > 100 µM | OVCAR-3 7.59 µM | RPMI-8226 28.6 µM | RXF 393 5.56 µM | SF-295 > 100 µM | SK-MEL-28 > 100 µM | UACC-257 > 100 µM | UACC-62 > 100 µM

COc1ccc2oc(OC)c(CC=C(C)C)c(=O)c2c1C
inactive: 786-0 > 100 µM | ACHN > 100 µM | CAKI-1 > 100 µM | HCT-116 > 100 µM | HOP-62 > 100 µM | HT-29 > 100 µM | Hs-578T > 100 µM | KM12 > 100 µM | LOX IMVI > 100 µM | Malme-3M > 100 µM | NCI-H23 > 100 µM | NCI-H460 > 100 µM | OVCAR-3 > 100 µM | RPMI-8226 > 100 µM | SF-295 > 100 µM | SK-MEL-28 > 100 µM | SNB-75 > 100 µM | UACC-257 > 100 µM | UACC-62 > 100 µM

Cc1ccc(-c2cc[n+]3c(n2)oc2ccccc23)cc1
inactive: 786-0 14.7 µM | ACHN 28.6 µM | CAKI-1 41.5 µM | HCT-116 29.8 µM | Hs-578T 27.8 µM | KM12 47.1 µM | LOX IMVI 35.7 µM | Malme-3M 13.2 µM | NCI-H23 39.9 µM | NCI-H460 72.8 µM | OVCAR-3 17.7 µM | RPMI-8226 12.5 µM | SF-295 26.7 µM | SK-MEL-28 22.1 µM | SNB-75 25 µM | UACC-257 18.8 µM | UACC-62 24.2 µM

COc1ccc(OC)c([N+](=O)[O-])c1-c1nc2sc(C)c(C)n2c1/C=N/N=C(N)N
inactive: 786-0 > 100 µM | ACHN > 100 µM | CAKI-1 > 100 µM | HCT-116 > 100 µM | HOP-62 > 100 µM | HT-29 43.4 µM | Hs-578T 48.3 µM | KM12 20.9 µM | LOX IMVI 49 µM | Malme-3M 60.7 µM | NCI-H23 > 100 µM | NCI-H460 91.6 µM | OVCAR-3 > 100 µM | RPMI-8226 32.4 µM | RXF 393 > 100 µM | SF-295 84.1 µM | SK-MEL-28 54.5 µM | UACC-257 > 100 µM | UACC-62 45.7 µM

Cc1cccc(C)c1Nc1nc(C)c(C(=O)CC(=O)C(=O)Nc2c(C(C)C)cccc2C(C)C)s1
inactive: 786-0 > 100 µM | ACHN > 100 µM | CAKI-1 > 100 µM | HCT-116 > 100 µM | HOP-62 > 100 µM | HT-29 > 100 µM | Hs-578T > 100 µM | KM12 > 100 µM | LOX IMVI > 100 µM | NCI-H23 > 100 µM | NCI-H460 > 100 µM | OVCAR-3 72.6 µM | RPMI-8226 56.8 µM | RXF 393 43.8 µM | SF-295 58.5 µM | SK-MEL-28 > 100 µM | UACC-257 > 100 µM | UACC-62 > 100 µM

CC(C)=CCN=C(N)N
inactive: 786-0 > 100 µM | ACHN > 100 µM | CAKI-1 > 100 µM | HCT-116 > 100 µM | HT-29 > 100 µM | Hs-578T > 100 µM | KM12 > 100 µM | LOX IMVI > 100 µM | Malme-3M > 100 µM | NCI-H23 > 100 µM | NCI-H460 > 100 µM | RPMI-8226 24.9 µM | RXF 393 > 100 µM | SF-295 > 100 µM | SK-MEL-28 > 100 µM | UACC-257 > 100 µM | UACC-62 > 100 µM
